Our source for the IC50 values is patent US9221838B2, “Inhibitors of AKT activity” (ALMAC DISCOVERY LIMITED, priority 2009, dated 2015).

Holding throughout (type): biochemical
Assay [1] concerns the target T1, AKT3 (Homo sapiens, UniProt Q9Y243).
T1 construct: purchased SignalChem
As to the kind of experiment: AKT Kinase Assay (IMAP fluorescent polarisation) vs AKT3. In a few lines: (§1)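 Phosphorylation of FAM-Crosstide detected by IMAP binding and fluorescence polarisation (485/528 nm), with IC50 fitted from % inhibition versus vehicle. Compound was incubated 45 min with enzyme, then reacted 1 h at room temperature with ATP and peptide in Tris/MgCl2/DTT buffer. Dose response had fourteen half-log points.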

For assay [2], the target named is T2, AKT2 (Homo sapiens, UniProt P31751).
T2 construct: purchased SignalChem
As to the kind of experiment: AKT Kinase Assay (IMAP fluorescent polarisation) vs AKT2. In short, it runs like this:
as §1

Assay [3] addresses T3, AKT1 (Homo sapiens, UniProt P31749).
T3 construct: purchased SignalChem
As to the kind of experiment: AKT Kinase Assay (IMAP fluorescent polarisation) vs AKT1. In a few lines:
as §1

T2 sequence (P31751 whole entry): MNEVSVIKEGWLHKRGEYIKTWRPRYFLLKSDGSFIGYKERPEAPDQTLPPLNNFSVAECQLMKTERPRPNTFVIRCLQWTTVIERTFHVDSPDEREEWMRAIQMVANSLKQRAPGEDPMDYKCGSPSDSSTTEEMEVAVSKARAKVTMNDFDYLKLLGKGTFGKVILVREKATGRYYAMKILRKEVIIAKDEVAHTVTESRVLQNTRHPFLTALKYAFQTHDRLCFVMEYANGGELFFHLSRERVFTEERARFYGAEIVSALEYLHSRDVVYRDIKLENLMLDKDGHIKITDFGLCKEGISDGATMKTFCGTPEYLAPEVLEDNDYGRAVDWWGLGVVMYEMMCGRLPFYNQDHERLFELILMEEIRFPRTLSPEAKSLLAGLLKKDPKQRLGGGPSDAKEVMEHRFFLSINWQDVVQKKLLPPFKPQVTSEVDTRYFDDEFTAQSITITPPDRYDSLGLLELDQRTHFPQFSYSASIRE
T1 sequence (Q9Y243 whole entry): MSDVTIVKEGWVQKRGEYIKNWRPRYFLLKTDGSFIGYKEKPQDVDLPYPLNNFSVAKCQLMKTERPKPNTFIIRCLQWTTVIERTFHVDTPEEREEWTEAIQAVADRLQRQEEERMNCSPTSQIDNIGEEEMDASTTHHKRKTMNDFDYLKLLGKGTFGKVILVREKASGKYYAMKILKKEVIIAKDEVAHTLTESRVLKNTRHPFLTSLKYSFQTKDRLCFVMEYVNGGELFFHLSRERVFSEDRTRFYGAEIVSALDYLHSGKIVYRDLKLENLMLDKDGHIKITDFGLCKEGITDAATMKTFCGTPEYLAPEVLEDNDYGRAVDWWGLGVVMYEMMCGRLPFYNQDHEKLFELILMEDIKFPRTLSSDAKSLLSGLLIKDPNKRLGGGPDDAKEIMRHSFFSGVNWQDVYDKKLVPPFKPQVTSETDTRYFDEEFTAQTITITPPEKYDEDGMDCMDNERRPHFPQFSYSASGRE
T3 sequence (P31749 whole entry): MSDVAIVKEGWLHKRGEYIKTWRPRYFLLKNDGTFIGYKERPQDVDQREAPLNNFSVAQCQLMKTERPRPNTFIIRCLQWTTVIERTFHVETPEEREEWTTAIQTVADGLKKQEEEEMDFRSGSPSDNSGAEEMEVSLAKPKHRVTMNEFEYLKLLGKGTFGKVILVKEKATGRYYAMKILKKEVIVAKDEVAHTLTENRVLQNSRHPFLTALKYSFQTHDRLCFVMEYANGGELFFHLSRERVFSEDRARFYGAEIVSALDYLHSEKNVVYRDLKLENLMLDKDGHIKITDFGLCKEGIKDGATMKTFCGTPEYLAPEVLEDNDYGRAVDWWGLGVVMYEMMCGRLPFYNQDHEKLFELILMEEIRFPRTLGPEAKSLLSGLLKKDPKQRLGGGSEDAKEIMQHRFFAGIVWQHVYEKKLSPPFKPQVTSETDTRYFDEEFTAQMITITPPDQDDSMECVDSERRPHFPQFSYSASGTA

Consider `Nc1nnc2n1-c1cc(-c3ccccc3)c(-c3ccc(C4(N)CCC4)cc3)nc1OC2` [Example 50, 7-(4-(1-aminocyclobutyl)phenyl)-8-phenyl-4H-pyrido[2,3-b][1,2,4]triazolo[4,3-d][1,4]oxazin-1-amine], for which the IC50 in assay [1] was 1000 to 10000 nM; in assay [2], 100 to 1000 nM; in assay [3] it was no more than 100 nM.

In the case of `N[C@]1(c2ccc(-c3nc4c(cc3-c3ccccc3)N(CC3CC3)C(=O)CO4)cc2)C[C@H](O)C1` [Example 140, 6-(4-((1s,3s)-1-amino-3-hydroxycyclobutyl)phenyl)-1-(cyclopropylmethyl)-7-phenyl-1H-pyrido[2,3-b][1,4]oxazin-2(3H)-one], the results for the half-maximal inhibitory concentration (IC50) in assay [1], in assay [2] and in assay [3] were 1000 to 10000 nM, 100 to 1000 nM and 100 to 1000 nM, respectively.

With `CC1Oc2nc(-c3ccc(C4(N)CCC4)cc3)c(-c3ccccc3)cc2NC1=O` (stereo not drawn) [Example 80, 6-(4-(1-aminocyclobutyl)phenyl)-3-methyl-7-phenyl-1H-pyrido[2,3-b][1,4]oxazin-2(3H)-one], the IC50 was greater than 10000 nM in assay [1], 100 to 1000 nM in assay [2] and 100 to 1000 nM in assay [3].

For the compound `NC1(c2ccc(-c3nc4c(cc3-c3ccccc3)N(Cc3cccnc3)C(=O)CO4)cc2)CCC1` [Example 46, 6-(4-(1-aminocyclobutyl)phenyl)-7-phenyl-1-(pyridin-3-ylmethyl)-1H-pyrido[2,3-b][1,4]oxazin-2(3H)-one], the IC50 in assay [1], in assay [2] and in assay [3] was 100 to 1000 nM each time.

For the compound `C[C@H]1Oc2nc(-c3ccc(C4(N)CCC4)cc3)c(-c3ccccc3)cc2N(C)C1=O` [Example 94, (R)-6-(4-(1-aminocyclobutyl)phenyl)-1,3-dimethyl-7phenyl-1H-pyrido[2,3-b][1,4]oxazin-2(3H)-one], the figures for the IC50 in assay [1], in assay [2] and in assay [3] were greater than 10000 nM, 1000 to 10000 nM and 100 to 1000 nM, respectively.

`C[C@]1(O)C[C@@](N)(c2ccc(-c3nc4c(cc3-c3ccccc3)N(CCF)C(=O)CO4)cc2)C1` [Example 145, 6-(4-((1r,3r)-1-amino-3-hydroxy-3-methylcyclobutyl)phenyl)-1-(2-fluoroethyl)-7-phenyl-1H-pyrido[2,3-b][1,4]oxazin-2(3H)-one]: the results for the IC50 in assay [1], in assay [2] and in assay [3] were 100 to 1000 nM, no more than 100 nM and no more than 100 nM, respectively.

Regarding `N[C@]1(c2ccc(-c3nc4c(cc3-c3ccccc3)-n3c(n[nH]c3=O)CO4)cc2)C[C@H](O)C1` [Example 141, 7-(4-((1s,3s)-1-amino-3-hydroxycyclobutyl)phenyl)-8-phenyl-2,4-dihydro-1H-pyrido[2,3-b][1,2,4]triazolo[4,3-d][1,4]oxazin-1-one], the 50% inhibitory concentration (IC50) in assay [1], in assay [2] and in assay [3] was 100 to 1000 nM each time.

`CC(CO)(CO)CN1C(=O)COc2nc(-c3ccc(C4(N)CCC4)cc3)c(-c3ccccc3)cc21` [Example 106, 6-(4-(1-aminocyclobutyl)phenyl)-1-(3-hydroxy-2-(hydroxymethyl)-2-methylpropyl)-7-phenyl-1H-pyrido[2,3-b][1,4]oxazin-2(3H)-one]: the IC50 in assay [1] is 1000 to 10000 nM; in assay [2], 100 to 1000 nM; in assay [3], 100 to 1000 nM.

By IC50 is commonly meant the concentration that inhibits the measured activity by half.
